In ChEMBL document CHEMBL3286342, “Design, synthesis, and structure-activity relationships of pyridoquinazolinecarboxamides as RNA polymerase I inhibitors” (J Med Chem, 2014):
Activity calls are given as the source filed them. The calls are words filed in the database; no cut-off is given here.

Columns and labels:
[1] = biological target: DNA-directed RNA polymerase I subunit RPA1 (Homo sapiens, UniProt O95602); details: u2os
Description: Induction of RNA polymerase-1 RPA194 subunit degradation in human U2OS cells after 3 hrs by epifluorescence microscopic analysis

U2OS [2] = test: Cytotoxicity against human U2OS cells assessed as loss of cell viability at 0.5 to 5 uM after 48 hrs by WST-1 assay; type: functional, cell-based
U2OS [3] = details: Homo sapiens, 10 uM
Description: Inhibition of RNA polymerase-1 in human U2OS cells assessed as effect on nucleolin protein expression at 10 uM after 3 hrs by Western blot analysis

[4] = Inhibition of RNA polymerase-1 in human U2OS cells assessed as decrease in nucleolar localization of nucleolin after 3 hrs by epifluorescence microscopic analysis; type: cell-based
U2OS [5] = details: Homo sapiens, 0.1 to 1 uM
Description: Inhibition of RNA polymerase-1 in human U2OS cells assessed as effect on nucleolin protein expression at 0.1 to 1 uM after 3 hrs by Western blot analysis

Liver microsome = test: Half life in human liver microsomes at 1 uM preincubated for 5 mins followed by beta-NADPH addition; type: ADME

Sequence of DNA-directed RNA polymerase I subunit RPA1 (O95602 whole entry): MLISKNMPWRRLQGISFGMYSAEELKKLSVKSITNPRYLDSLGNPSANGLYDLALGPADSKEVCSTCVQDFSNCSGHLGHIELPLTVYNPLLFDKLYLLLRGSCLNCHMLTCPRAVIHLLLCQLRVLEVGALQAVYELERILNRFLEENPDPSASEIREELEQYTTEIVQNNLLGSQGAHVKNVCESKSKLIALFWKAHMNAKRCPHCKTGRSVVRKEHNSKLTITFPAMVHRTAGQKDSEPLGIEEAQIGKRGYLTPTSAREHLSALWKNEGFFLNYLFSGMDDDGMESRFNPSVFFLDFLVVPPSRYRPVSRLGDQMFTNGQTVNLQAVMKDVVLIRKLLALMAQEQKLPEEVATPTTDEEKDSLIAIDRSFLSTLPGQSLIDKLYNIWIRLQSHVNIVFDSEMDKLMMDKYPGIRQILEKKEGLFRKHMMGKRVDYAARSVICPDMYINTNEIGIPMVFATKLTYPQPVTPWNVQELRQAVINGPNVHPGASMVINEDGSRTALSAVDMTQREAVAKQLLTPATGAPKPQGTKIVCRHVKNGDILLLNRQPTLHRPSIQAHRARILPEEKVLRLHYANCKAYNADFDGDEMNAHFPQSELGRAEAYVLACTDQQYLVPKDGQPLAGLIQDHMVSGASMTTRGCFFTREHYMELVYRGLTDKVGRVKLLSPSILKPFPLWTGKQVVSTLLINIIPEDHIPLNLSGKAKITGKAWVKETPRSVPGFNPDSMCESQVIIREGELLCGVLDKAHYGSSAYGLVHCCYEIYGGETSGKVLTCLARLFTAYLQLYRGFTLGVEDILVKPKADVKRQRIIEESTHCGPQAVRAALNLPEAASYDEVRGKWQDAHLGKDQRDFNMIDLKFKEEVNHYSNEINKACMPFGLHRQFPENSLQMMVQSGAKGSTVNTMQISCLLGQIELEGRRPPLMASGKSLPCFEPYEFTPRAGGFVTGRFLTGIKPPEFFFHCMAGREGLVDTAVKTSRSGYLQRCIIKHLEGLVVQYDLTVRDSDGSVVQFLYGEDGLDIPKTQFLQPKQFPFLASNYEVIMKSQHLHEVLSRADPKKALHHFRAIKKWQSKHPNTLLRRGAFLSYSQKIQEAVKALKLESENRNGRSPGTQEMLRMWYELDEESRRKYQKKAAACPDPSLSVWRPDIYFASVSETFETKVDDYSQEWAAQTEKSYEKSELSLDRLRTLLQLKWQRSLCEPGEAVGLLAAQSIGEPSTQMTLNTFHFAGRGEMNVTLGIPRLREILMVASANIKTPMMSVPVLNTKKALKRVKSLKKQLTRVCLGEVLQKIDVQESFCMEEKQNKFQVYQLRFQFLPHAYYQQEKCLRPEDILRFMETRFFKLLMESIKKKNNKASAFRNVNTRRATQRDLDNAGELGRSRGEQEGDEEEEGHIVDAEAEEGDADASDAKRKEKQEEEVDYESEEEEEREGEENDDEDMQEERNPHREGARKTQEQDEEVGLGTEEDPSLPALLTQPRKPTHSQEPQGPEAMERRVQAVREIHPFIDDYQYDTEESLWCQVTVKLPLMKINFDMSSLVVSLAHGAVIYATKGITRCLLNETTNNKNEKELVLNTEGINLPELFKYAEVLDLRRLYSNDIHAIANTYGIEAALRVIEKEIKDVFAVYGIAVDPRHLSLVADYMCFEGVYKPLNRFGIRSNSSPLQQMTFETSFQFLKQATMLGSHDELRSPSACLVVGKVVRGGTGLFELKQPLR

| Compound | IC50 [1] | Activity (U2OS [2]) | inhibition (U2OS [3]) | IC50 [4] | inhibition (U2OS [5]) | t1/2 (Liver microsome) |
| --- | --- | --- | --- | --- | --- | --- |
| CN(C)CCNC(=O)c1cccn2c(=O)c3ccccc3nc12 | 2.17 µM | inactive | Active | 3.17 µM | inactive |  |
| CN(C)CCN(C)C(=O)c1cccn2c(=O)c3cc4ccccc4cc3nc12 |  | inactive | Active | > 100 µM | inactive |  |
| CCN(CC)C1CCN(C(=O)c2cccn3c(=O)c4cc5ccccc5cc4nc23)C1 (stereo not given) | 31.8 µM |  |  | 10.6 µM |  |  |
| CN(C)CCOC(=O)c1cccn2c(=O)c3cc4ccccc4cc3nc12 | 50.9 µM |  |  | 12.3 µM |  |  |
| CC(CNC(=O)c1cccn2c(=O)c3cc4ccccc4cc3nc12)N(C)C (stereo not given) |  | Active |  |  |  | 43 min |
| CC(CN(C)C)NC(=O)c1cccn2c(=O)c3cc4ccccc4cc3nc12 (stereo not given) |  |  | Active |  | inactive | 54 min |
| COCCN(C)CCNC(=O)c1cccn2c(=O)c3cc4ccccc4cc3nc12 |  |  |  |  |  | 14 min |
| O=C(NCCN1CCCC1)c1cccn2c(=O)c3cc4ccccc4cc3nc12 |  | Active |  |  |  | 33 min |
| CN1CCN(CCNC(=O)c2cccn3c(=O)c4cc5ccccc5cc4nc23)CC1 |  |  |  |  |  | 43 min |
| O=C(NCCN1CCOCC1)c1cccn2c(=O)c3cc4ccccc4cc3nc12 |  | inactive | Active |  | inactive |  |
| CN(C)CCNC(=O)c1cccn2c(=O)c3cc4ccccc4cc3nc12 |  | Active | Active | 0.07 µM | inactive | 57 min |
| CCN(CC)CCNC(=O)c1cccn2c(=O)c3cc4ccccc4cc3nc12 |  |  |  |  |  | 21 min |
| CCN(CC)CCNC(=O)c1cccn2c(=O)c3ccccc3nc12 | 1.35 µM |  |  | 3.28 µM |  |  |
| O=C(NCCN1CCCCC1)c1cccn2c(=O)c3cc4ccccc4cc3nc12 |  | Active | Active |  | inactive | 25 min |
| CN(C)CCCCNC(=O)c1cccn2c(=O)c3cc4ccccc4cc3nc12 |  | inactive | Active |  | inactive |  |
